Numbers after ± are expanded uncertainties.
Test: xn = mol fraction of the nth substance listed
Conditions: 101 kPa, Liquid; for speed of sound: Frequency=2 MHz, Linear variable-path acoustic interferometer; for mass density: Vibrating tube method

Cc1ccccc1Cl [2-chlorotoluene] + CCCCCCO
Conditions | mass density, 298.15 K [kg/m3] | mass density, 303.15 K [kg/m3] | mass density, 308.15 K [kg/m3] | speed of sound, 298.15 K [m/s] | speed of sound, 303.15 K [m/s] | speed of sound, 308.15 K [m/s]
x1 = 0.0974 | 839.69 ± 0.37 | 835.89 ± 0.37 | 832.09 ± 0.37 | 1304.1 ± 2.3 | 1287 ± 2.3 | 1268.7 ± 2.3
x1 = 0.1968 | 864.67 ± 0.34 | 860.71 ± 0.34 | 856.77 ± 0.34 | 1302 ± 2.2 | 1284.3 ± 2.2 | 1266 ± 2.2
x1 = 0.3046 | 892 ± 0.31 | 887.87 ± 0.3 | 883.78 ± 0.3 | 1298.3 ± 2.2 | 1280.2 ± 2.2 | 1260.7 ± 2.2
x1 = 0.3967 | 915.57 ± 0.27 | 911.34 ± 0.27 | 907.1 ± 0.27 | 1294.3 ± 2.1 | 1275.7 ± 2.1 | 1255.7 ± 2.1
x1 = 0.489 | 939.38 ± 0.24 | 934.99 ± 0.24 | 930.68 ± 0.24 | 1290.1 ± 2.1 | 1271.1 ± 2.1 | 1250.9 ± 2.1
x1 = 0.5955 | 967.24 ± 0.21 | 962.7 ± 0.21 | 958.3 ± 0.21 | 1286.1 ± 2 | 1266.2 ± 2 | 1246.3 ± 2
x1 = 0.6902 | 992.34 ± 0.19 | 987.72 ± 0.19 | 983.26 ± 0.19 | 1283.6 ± 2 | 1264.1 ± 2 | 1244.4 ± 2
x1 = 0.8086 | 1024.27 ± 0.18 | 1019.61 ± 0.17 | 1015.04 ± 0.17 | 1284.7 ± 2 | 1265.4 ± 1.9 | 1246.2 ± 1.9
x1 = 0.8949 | 1047.98 ± 0.17 | 1043.25 ± 0.17 | 1038.71 ± 0.17 | 1289.1 ± 1.9 | 1270.5 ± 1.9 | 1250 ± 1.9
x1 = 1 | 1077.38 ± 0.15 | 1072.8 ± 0.15 | 1068.21 ± 0.15 | 1299.8 ± 1.9 | 1283.6 ± 1.9 | 1265.6 ± 1.9

Reference: the NIST ThermoML archive (doi:10.1016/j.jct.2013.08.013)
